In US6472389B1, “Pyrrolo[1,2-b] pyridazine derivatives having sPLA2 inhibitory effect” (Shionogi & Co., Ltd., priority 1998, dated 2002):

Assays:
[1] = molecular target: T1, recombinant human secretory phospholipase A2 (Homo sapiens, UniProt P14555); assay: Inhibition test of human secretory phospholipase A2 (chromogenic assay, 96 well microtiterplate); format: biochemical; conditions: sPLA2 50 ng/well, 40° C., 30 minutes, OD 405 nm, substrate 1,2-bis(heptanoylthio)-1,2-dideoxy-sn-glycero-3-phospholylcholine
T1 sequence (P14555 21-144): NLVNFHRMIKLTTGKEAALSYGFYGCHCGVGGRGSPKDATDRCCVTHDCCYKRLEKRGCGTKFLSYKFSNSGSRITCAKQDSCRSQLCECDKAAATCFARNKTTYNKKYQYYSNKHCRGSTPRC
Description: Inhibition Test of Human Secretory Phospholipase A2
In order to identify and evaluate an inhibitor of recombinant human secretory phospholipase A2, the following chromogenic assay is utilized. The assay herein has been applied for high volume screening wherein 96 well microtiterplate is used. A general explanation for such assay is described in “Analysis of Human Synovial Fluid Phospholipase A2 on Short Chain Phosphatidylcholine-Mixed Micelles: Development of a Spectrophotometric Assay Suitable for a Micortiterplate Reader” (Analytical Biochemistry, 204, pp 190-197, 1992 by Laure. J. Reynolds. Lori L. Hughes and Edward A. Dennis: the disclosure of which is incorporated herein for reference.
Bovine Serum Albumin (fatty acid free) (1 g/L) (Sigma A-7030)
pH 7.5 (adjusted with NaOH)
pH 4.5 (adjusted with acetic acid)
1 mg of sPLA2 is dissolved in 1 ml of an enzyme buffer. Thereafter, the solution is maintained at 4° C.
In the assay, 5 μl of the solution is diluted with 1995 μl of the reaction buffer to be used.
198 mg of 5,5′-dithiobis-2-[…] (manufactured by Wako Pure Chemicals) is dissolved in 100 ml of H2O
100 mg of racemic 1,2-bis(heptanoylthio)-1,2-dideoxy-sn-glycero-3-phospholylcholine is dissolved in 1 ml of chloroform.
624.9 mg of Triton-X 100 is dissolved in the reaction buffer.
Enzyme Reaction: for 1 plate of Microtiterplate
1) 0.106 ml of the substrate solution is put in a centrifugal tube, and nitrogen gas is jetted to remove the solvent. 0.54 ml of Triton-X 100 is added thereto, the mixture is stirred, thereafter it is sonified in a bath type sonification to dissolve. To the resulting product are added 17.8 m1l of the reaction buffer and 0.46 ml of DTNB, and 0.18 ml each of the admixture is poured to wells of the 96 well microtiterplate.
2) 10 μl of a test compound (or solvent blank) are added in accordance with alignment of plates which has been previously set.
3) Incubation is effected at 40° C. for 15 minutes.
4) 20 μl of an enzyme solution (sPLA2) which has been previously diluted (50 ng/well) are added to start reaction (40° C., 30 minutes).
5) Changes in absorbancy for 30 minutes are measured by a plate reader, and inhibition activity was calculated (OD: 405 nm).
6) IC50 was determined by plotting log concentration with respect to inhibition values within 10% to 90% inhibiting range.

SMILES: CCCc1cc(OCC(=O)OC)c2c(C(=O)C(N)=O)c(C)c(Cc3ccccc3)n2n1 [Compound I-41]
- IC50 [1]: 64 nM
- melting point: 210 to 211 °C

SMILES: CCc1c(C(=O)C(N)=O)c2c(OCC(=O)OC)cc(-c3ccccc3)nn2c1Cc1ccccc1 [Compound I-11]
- IC50 [1]: 67 nM
- melting point: 236 to 239 °C

SMILES: CCc1c(C(=O)C(N)=O)c2c(OCC(=O)OC)cc(CN3C(=O)CCC3=O)nn2c1Cc1ccccc1 [Compound I-49]
- IC50 [1]: 7810 nM
- melting point: 188 to 189 °C

SMILES: CCc1c(C(=O)C(N)=O)c2c(OCC(=O)O)cc(C3CCCCC3)nn2c1Cc1ccccc1 [Compound I-67]
- IC50 [1]: 16 nM
- melting point: 272 to 275 °C (dec.)

SMILES: CCc1c(C(=O)C(N)=O)c2c(OCC(=O)O)cc(-c3ccccc3)nn2c1Cc1ccc(F)cc1 [Compound I-23]
- IC50 [1]: 7 nM
- melting point: 250 to 252 °C

SMILES: CCc1c(C(=O)C(N)=O)c2c(OCC(=O)O)cc(C)nn2c1Cc1ccccc1 [Compound I-5, (5-aminooxalyl-7-benzyl-6-ethyl-2-methylpyrrolo[1,2-b]pyridazine-4-yloxy)acetic acid]
- IC50 [1]: 11 nM

SMILES: CCOC(=O)COc1cc(C)nn2c(Cc3ccccc3)c(C)c(C(=O)C(N)=O)c12 [Compound I-55]
- IC50 [1]: 56 nM
- melting point: 197 to 199 °C

SMILES: CCc1c(C(=O)C(N)=O)c2c(OCC(=O)O)cc(CN3CCCC3)nn2c1Cc1ccccc1 [Compound I-59]
- IC50 [1]: 1080 nM
- melting point: 228 to 231 °C (dec.)

SMILES: CCCc1cc(OCC(=O)OC)c2c(C(=O)C(N)=O)c(CC)c(Cc3ccccc3)n2n1 [Compound I-9]
- IC50 [1]: 165 nM
- melting point: 204 to 206 °C

SMILES: CCc1c(C(=O)C(N)=O)c2c(OCC(=O)O)cc(-c3ccccc3)nn2c1Cc1ccccc1F [Compound I-25]
- IC50 [1]: 6 nM
- melting point: 252 to 254 °C

SMILES: CCc1c(C(=O)C(N)=O)c2c(OCC(=O)O)cc(CN3C(=O)CCC3=O)nn2c1Cc1ccccc1 [Compound I-79]
- IC50 [1]: 464 nM
- melting point: 210 to 212 °C (dec.)

SMILES: CCc1c(C(=O)C(N)=O)c2c(OCC(=O)O)cc(COc3ccccc3)nn2c1Cc1ccccc1 [Compound I-57]
- IC50 [1]: 7 nM
- melting point: 218 to 220 °C (dec.)

SMILES: Cc1c(C(=O)C(N)=O)c2c(OCC(=O)O)cc(Cc3ccccc3)nn2c1C [Compound I-81]
- IC50 [1]: 8190 nM
- melting point: 232 to 233 °C (dec.)

SMILES: CCc1cc(OCC(=O)O)c2c(C(=O)C(N)=O)c(CC)c(Cc3ccccc3)n2n1 [Compound I-18]
- IC50 [1]: 10 nM
- melting point: 223 to 225 °C (dec.)

SMILES: COC(=O)COc1cc(C)nn2c(Cc3ccc(-c4ccccc4)cc3)c(C)c(C(=O)C(N)=O)c12 [Compound I-53]
- IC50 [1]: 3740 nM
- melting point: 234 to 236 °C

SMILES: CCc1c(C(=O)C(N)=O)c2c(OCC(=O)OC)cc(CSc3ccccc3)nn2c1Cc1ccccc1 [Compound I-27]
- IC50 [1]: 126 nM
- melting point: 189 to 192 °C

SMILES: COCc1cc(OCC(=O)O)c2c(C(=O)C(N)=O)c(C)c(Cc3ccccc3)n2n1 [Compound I-74]
- IC50 [1]: 15 nM
- melting point: 197 to 198 °C

SMILES: CCc1c(C(=O)C(N)=O)c2c(OCC(=O)OC)cc(C)nn2c1Cc1ccccc1-c1ccccc1 [Compound I-35]
- IC50 [1]: 111 nM
- melting point: 187 to 189 °C

SMILES: COC(=O)COc1cc(C)nn2c(Cc3ccccc3-c3ccc(F)cc3)c(C)c(C(=O)C(N)=O)c12 [Compound I-52]
- IC50 [1]: 93 nM
- melting point: 194 to 196 °C

SMILES: CCc1c(C(=O)C(N)=O)c2c(OCC(=O)O)cc(CN=[N+]=[N-])nn2c1Cc1ccccc1 [Compound I-80]
- IC50 [1]: 13 nM
- melting point: 199 to 200 °C (dec.)

SMILES: CCc1c(C(=O)C(N)=O)c2c(OCC(=O)O)cc(CN3CCN(C)CC3)nn2c1Cc1ccccc1 [Compound I-61]
- IC50 [1]: 2610 nM
- melting point: 249 to 250 °C (dec.)

SMILES: CCc1c(C(=O)C(N)=O)c2c(OCC(=O)OC)cc(-c3ccccc3)nn2c1Cc1ccc(F)cc1 [Compound I-13]
- IC50 [1]: 238 nM
- melting point: 253 to 255 °C

SMILES: CCc1c(C(=O)C(N)=O)c2c(OCC(=O)OC)cc(C(C)C)nn2c1Cc1ccccc1 [Compound I-10]
- IC50 [1]: 296 nM
- melting point: 174 to 175 °C

SMILES: CCc1c(C(=O)C(N)=O)c2c(OCC(=O)OC)cc(C)nn2c1Cc1ccccc1-c1ccc(F)cc1 [Compound I-54]
- IC50 [1]: 148 nM
- melting point: 190 to 192 °C

SMILES: CCc1c(C(=O)C(N)=O)c2c(OCC(=O)O)cc(C(F)(F)F)nn2c1Cc1ccc(F)cc1 [Compound I-24]
- IC50 [1]: 21 nM
- melting point: 248 to 250 °C

SMILES: CCCc1cc(OCC(=O)O)c2c(C(=O)C(N)=O)c(CC)c(Cc3ccccc3)n2n1 [Compound I-19]
- IC50 [1]: 10 nM
- melting point: 231 to 233 °C (dec.)

SMILES: Cc1cc(OCC(=O)O)c2c(C(=O)C(N)=O)c(C)c(Cc3ccc(-c4ccccc4)cc3)n2n1 [Compound I-83]
- IC50 [1]: 83 nM
- melting point: 271 to 276 °C (dec.)

SMILES: CCc1c(C(=O)C(N)=O)c2c(OCC(=O)O)cc(-c3ccccc3)nn2c1Cc1ccccc1 [Compound I-21]
- IC50 [1]: 6 nM
- melting point: 244 to 246 °C (dec.)

SMILES: COC(=O)COc1cc(C)nn2c(Cc3ccccc3)c(C)c(C(=O)C(N)=O)c12 [Compound I-26]
- IC50 [1]: 177 nM
- melting point: 163 to 165 °C

SMILES: CCc1c(C(=O)C(N)=O)c2c(OCC(=O)O)cc(C)nn2c1Cc1cccc(Oc2ccccc2)c1 [Compound I-66]
- IC50 [1]: 6 nM
- melting point: 188 to 190 °C

SMILES: CCc1cc(OCC(=O)OC)c2c(C(=O)C(N)=O)c(CC)c(Cc3ccccc3)n2n1 [Compound I-8]
- IC50 [1]: 184 nM
- melting point: 183 to 185 °C

SMILES: Cc1cc(OCC(=O)O)c2c(C(=O)C(N)=O)c(C)c(Cc3ccccc3)n2n1 [Compound I-16]
- IC50 [1]: 12 nM
- melting point: 271 to 272 °C (dec.)

SMILES: CCCc1cc(OCC(=O)O)c2c(C(=O)C(N)=O)c(C)c(Cc3ccccc3)n2n1 [Compound I-71]
- IC50 [1]: 8 nM
- melting point: 204 to 205 °C

SMILES: CCc1c(C(=O)C(N)=O)c2c(OCC(=O)O)cc(C)nn2c1Cc1ccc(F)cc1 [Compound I-22]
- IC50 [1]: 22 nM
- melting point: 238 to 240 °C

SMILES: CCc1c(C(=O)C(N)=O)c2c(OCC(=O)O)cc(-c3ccc(F)cc3)nn2c1Cc1ccccc1 [Compound I-63]
- IC50 [1]: 6 nM
- melting point: 250 to 253 °C (dec.)

SMILES: CCc1c(C(=O)C(N)=O)c2c(OCC(=O)OC)cc(COc3ccccc3)nn2c1Cc1ccccc1 [Compound I-6, Methyl (5-aminooxalyl-7-benzyl-6-ethyl-2-phenoxymethylpyrrolo[1,2-b]pyridazine-4-yloxy)acetate]
- IC50 [1]: 238 nM
- melting point: 185 to 186 °C

SMILES: CCc1c(C(=O)C(N)=O)c2c(OCC(=O)OC)cc(-c3ccc(OC)cc3)nn2c1Cc1ccccc1 [Compound I-34]
- IC50 [1]: 58 nM
- melting point: 215 to 217 °C (dec.)

SMILES: CCc1c(C(=O)C(N)=O)c2c(OCC(=O)OC)cc(C3CCCC3)nn2c1Cc1ccccc1 [Compound I-38]
- IC50 [1]: 227 nM
- melting point: 160 to 162 °C (dec.)

SMILES: CCc1c(C(=O)C(N)=O)c2c(OCC(=O)O)ccnn2c1Cc1ccccc1 [Compound I-2, (5-aminooxalyl-7-benzyl-6-ethylpyrrolo[1,2-b]pyridazine-4-yloxy)acetic acid]
- IC50 [1]: 9 nM

SMILES: CCc1c(C(=O)C(N)=O)c2c(OCC(=O)O)ccnn2c1Cc1ccccc1 [Compound I-3, Sodium (5-aminooxalyl-7-benzyl-6-ethylpyrrolo[1,2-b]pyridazine-4-yloxy)acetate]
- IC50 [1]: 13 nM
